A value given as a limit tells only on which side of the number the result lay.

In the test the target is T1, POLγA:G848S (Homo sapiens, UniProt P54098, G848S).
T1 sequence (P54098 1-1239 G848S): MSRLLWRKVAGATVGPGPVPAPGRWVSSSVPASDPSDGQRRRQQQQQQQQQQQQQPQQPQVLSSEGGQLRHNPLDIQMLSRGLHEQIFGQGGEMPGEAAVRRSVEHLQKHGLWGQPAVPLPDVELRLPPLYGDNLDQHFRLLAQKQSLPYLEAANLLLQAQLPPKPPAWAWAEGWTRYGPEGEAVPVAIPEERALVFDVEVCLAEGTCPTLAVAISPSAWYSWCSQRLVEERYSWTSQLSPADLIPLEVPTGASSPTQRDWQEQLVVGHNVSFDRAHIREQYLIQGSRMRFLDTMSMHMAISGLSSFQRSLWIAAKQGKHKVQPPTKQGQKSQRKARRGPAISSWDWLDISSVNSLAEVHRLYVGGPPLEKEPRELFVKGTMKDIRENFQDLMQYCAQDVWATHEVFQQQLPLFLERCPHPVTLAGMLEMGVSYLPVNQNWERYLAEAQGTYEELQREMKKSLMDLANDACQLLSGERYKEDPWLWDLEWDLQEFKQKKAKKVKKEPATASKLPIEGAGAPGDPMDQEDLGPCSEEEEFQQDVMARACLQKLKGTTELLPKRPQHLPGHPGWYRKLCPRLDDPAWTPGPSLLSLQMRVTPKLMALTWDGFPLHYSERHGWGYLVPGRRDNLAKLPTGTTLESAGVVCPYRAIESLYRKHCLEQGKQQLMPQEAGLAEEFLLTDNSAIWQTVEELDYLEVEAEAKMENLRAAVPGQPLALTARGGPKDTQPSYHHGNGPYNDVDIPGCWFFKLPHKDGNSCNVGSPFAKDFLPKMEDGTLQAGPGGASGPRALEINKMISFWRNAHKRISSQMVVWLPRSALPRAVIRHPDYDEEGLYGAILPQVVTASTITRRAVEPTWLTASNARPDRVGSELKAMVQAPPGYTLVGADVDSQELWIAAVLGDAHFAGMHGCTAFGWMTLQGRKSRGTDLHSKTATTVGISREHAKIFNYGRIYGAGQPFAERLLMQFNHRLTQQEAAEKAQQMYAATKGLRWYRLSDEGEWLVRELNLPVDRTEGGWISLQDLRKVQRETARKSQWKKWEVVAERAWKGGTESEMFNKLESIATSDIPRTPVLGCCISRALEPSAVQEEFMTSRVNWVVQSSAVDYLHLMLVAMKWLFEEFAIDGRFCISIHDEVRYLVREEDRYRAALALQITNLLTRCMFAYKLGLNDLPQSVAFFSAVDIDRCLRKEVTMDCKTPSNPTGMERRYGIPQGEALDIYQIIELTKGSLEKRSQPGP
T1 sequence (Q9UHN1 1-485 partner): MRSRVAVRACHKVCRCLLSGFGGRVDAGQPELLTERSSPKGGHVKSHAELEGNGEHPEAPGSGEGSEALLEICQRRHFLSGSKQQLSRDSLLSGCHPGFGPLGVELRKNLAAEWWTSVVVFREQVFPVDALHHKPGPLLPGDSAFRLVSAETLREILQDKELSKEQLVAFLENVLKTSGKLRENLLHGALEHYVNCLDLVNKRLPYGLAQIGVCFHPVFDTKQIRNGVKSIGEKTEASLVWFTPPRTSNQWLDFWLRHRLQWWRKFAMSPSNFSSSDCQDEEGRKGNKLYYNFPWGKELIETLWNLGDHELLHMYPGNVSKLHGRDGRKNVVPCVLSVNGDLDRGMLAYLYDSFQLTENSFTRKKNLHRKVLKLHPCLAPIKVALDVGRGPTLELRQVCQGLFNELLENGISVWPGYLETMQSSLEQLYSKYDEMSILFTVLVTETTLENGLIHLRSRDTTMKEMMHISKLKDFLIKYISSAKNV
As to the kind of experiment: DNA polymerization assay, POLγA:G848S mutant. The note with it: stimulation of polymerase activity, primed M13mp18 ssDNA, 37° C. 2 hours; read-out: G848S AC50. The class given is biochemical.
`Cc1cc(S(=O)(=O)Nc2ccc3ccn(C)c3c2)c(C)cc1Cl` [Example 72, 4-chloro-2,5-dimethyl-N-(1-methyl-1H-indol-6-yl)benzenesulfonamide]: the AC50 is 98 µM.

For the molecule `Cc1nc2ccc(NS(=O)(=O)c3cc(C)c(Cl)cc3C)cc2s1` [Example 73, 4-chloro-2,5-dimethyl-N-(2-methylbenzo[d]thiazol-6-yl)benzenesulfonamide], the AC50 was found to be 14 µM.

On to `Cc1cc(S(=O)(=O)Nc2ccc3nc(-c4ccccc4)sc3c2)c(C)cc1Cl` [Example 74, 4-chloro-2,5-dimethyl-N-(2-phenylbenzo[d]thiazol-6-yl)benzenesulfonamide], for which the AC50 is over 100 µM.

As to `Cc1nc2cc(NS(=O)(=O)c3cc(C)c(Cl)cc3C)ccc2o1` [Example 75, 4-chloro-2,5-dimethyl-N-(2-methylbenzo[d]oxazol-5-yl)benzenesulfonamide], the AC50 was over 100 µM.

For `Cc1cc(S(=O)(=O)Nc2cccc(-c3ncc(C4CC4)s3)c2)c(C)cc1Cl` [Example 76, 4-chloro-N-(3-(5-cyclopropylthiazol-2-yl)phenyl)-2,5-dimethylbenzenesulfonamide], the AC50 was 3 µM.

`Cc1cc(S(=O)(=O)Nc2ccccc2-c2ncco2)c(C)cc1Cl` [Example 77, 4-chloro-2,5-dimethyl-N-(2-(oxazol-2-yl)phenyl)benzenesulfonamide]: the AC50 is over 100 µM.

In the case of `Cc1cnc(-c2cccc(S(=O)(=O)Nc3cc(C)c(Cl)cc3C)c2)s1` [Example 78, N-(4-chloro-2,5-dimethylphenyl)-3-(5-methylthiazol-2-yl)benzenesulfonamide], the AC50 is over 10 µM.

`Cc1cnc(-c2ccccc2NS(=O)(=O)c2cc(C)c(Cl)cc2C)s1` [Example 79, 4-chloro-2,5-dimethyl-N-(2-(5-methylthiazol-2-yl)phenyl)benzenesulfonamide]: the AC50 was over 10 µM.

Regarding `Cc1csc(-c2ccccc2NS(=O)(=O)c2cc(C)c(Cl)cc2C)n1` [Example 80, 4-chloro-2,5-dimethyl-N-(2-(4-methylthiazol-2-yl)phenyl)benzenesulfonamide], the AC50 is over 10 µM.

Take `Cc1cc(S(=O)(=O)Nc2csc(-c3ccccc3)n2)c(C)cc1Cl` [Example 81, 4-chloro-2,5-dimethyl-N-(2-phenylthiazol-4-yl)benzenesulfonamide]: the AC50 came out at 2 µM.

Turning to `Cc1cc(S(=O)(=O)NC2CCOc3c(Cl)cccc32)c(C)cc1Cl` (stereo not drawn) [Example 82, 4-chloro-N-(8-chlorochroman-4-yl)-2,5-dimethylbenzenesulfonamide], the AC50 was over 10 µM.

Regarding `Cc1cnc(-c2ccc(NS(=O)(=O)c3cc(C)c(Cl)cc3C)cc2)s1` [Example 83, 4-chloro-2,5-dimethyl-N-(4-(5-methylthiazol-2-yl)phenyl)benzenesulfonamide], the AC50 is 3 µM.

`Cc1cc(S(=O)(=O)Nc2cc(-c3ccccc3)no2)c(C)cc1Cl` [Example 84, 4-chloro-2,5-dimethyl-N-(3-phenylisoxazol-5-yl)benzenesulfonamide]: the AC50 was over 10 µM.

Turning to `Cc1nc2cccc(NS(=O)(=O)c3cc(C)c(Cl)cc3C)c2s1` [Example 85, 4-chloro-2,5-dimethyl-N-(2-methylbenzo[d]thiazol-7-yl)benzenesulfonamide], the AC50 was over 100 µM.

In the case of `Cc1cc(S(=O)(=O)Nc2ccc(-c3ncc(CN(C)C)s3)cc2)c(C)cc1Cl` [Example 86, 4-chloro-N-(4-(5-((dimethylamino)methyl)thiazol-2-yl)phenyl)-2,5-dimethylbenzenesulfonamide], the AC50 is over 100 µM.

For the molecule `Cc1cc(S(=O)(=O)Nc2cccc(-c3ncc(CN(C)C)s3)c2)c(C)cc1Cl` [Example 87, 4-chloro-N-(3-(5-((dimethylamino)methyl)thiazol-2-yl)phenyl)-2,5-dimethylbenzenesulfonamide], the AC50 stood at 14 µM.

Turning to `COC(=O)c1cnc(-c2cccc(NS(=O)(=O)c3cc(C)c(Cl)cc3C)c2)s1` [Example 88, methyl 2-(3-((4-chloro-2,5-dimethylphenyl)sulfonamido)phenyl) thiazole-5-carboxylate], the AC50 was over 100 µM.

With `Cc1cc(S(=O)(=O)Nc2cccc(-c3ncc(CO)s3)c2)c(C)cc1Cl` [Example 89, 4-chloro-N-(3-(5-(hydroxymethyl)thiazol-2-yl)phenyl)-2,5-dimethylbenzenesulfonamide], the AC50 was determined as 3 µM.

For the molecule `Cc1cc(S(=O)(=O)Nc2cccc(-c3ncc(C(=O)O)s3)c2)c(C)cc1Cl` [Example 90, 2-(3-((4-chloro-2,5-dimethylphenyl)sulfonamido)phenyl) thiazole-5-carboxylic acid], the AC50 is over 100 µM.

As to `Cc1cc(S(=O)(=O)Nc2cccc(C(=O)N3CCCN(C(=O)C(C)C)CC3)c2)c(C)cc1Cl` [Example 91, 4-chloro-N-(3-(4-isobutyryl-1,4-diazepane-1-carbonyl)phenyl)-2,5-dimethylbenzenesulfonamide], the AC50 was over 100 µM.

As to `Cc1cc(S(=O)(=O)Nc2csc(-c3ccnn3C)n2)c(C)cc1Cl` [Example 182, 4-chloro-2,5-dimethyl-N-(2-(1-methyl-1H-pyrazol-5-yl)thiazol-4-yl)benzenesulfonamide], the AC50 is 0.9 µM.

A word on the AC50: it is the concentration at which the activity in the assay is half-maximal.
